Molecular target: T1, DPP-IV (Homo sapiens, UniProt P27487)
T1 construct: in an in vivo protocol study in humans; from tissue; host or cells: human subjects (in vivo)
Experiment: in vivo protocol study in humans: selectivity of DPP-IV inhibition over other dipeptidyl peptidases
Conditions: other dipeptidyl peptidases named in the block: DPP-VII, DPP-VIII, DPP-IX, FAP

T1 sequence (P27487 whole entry): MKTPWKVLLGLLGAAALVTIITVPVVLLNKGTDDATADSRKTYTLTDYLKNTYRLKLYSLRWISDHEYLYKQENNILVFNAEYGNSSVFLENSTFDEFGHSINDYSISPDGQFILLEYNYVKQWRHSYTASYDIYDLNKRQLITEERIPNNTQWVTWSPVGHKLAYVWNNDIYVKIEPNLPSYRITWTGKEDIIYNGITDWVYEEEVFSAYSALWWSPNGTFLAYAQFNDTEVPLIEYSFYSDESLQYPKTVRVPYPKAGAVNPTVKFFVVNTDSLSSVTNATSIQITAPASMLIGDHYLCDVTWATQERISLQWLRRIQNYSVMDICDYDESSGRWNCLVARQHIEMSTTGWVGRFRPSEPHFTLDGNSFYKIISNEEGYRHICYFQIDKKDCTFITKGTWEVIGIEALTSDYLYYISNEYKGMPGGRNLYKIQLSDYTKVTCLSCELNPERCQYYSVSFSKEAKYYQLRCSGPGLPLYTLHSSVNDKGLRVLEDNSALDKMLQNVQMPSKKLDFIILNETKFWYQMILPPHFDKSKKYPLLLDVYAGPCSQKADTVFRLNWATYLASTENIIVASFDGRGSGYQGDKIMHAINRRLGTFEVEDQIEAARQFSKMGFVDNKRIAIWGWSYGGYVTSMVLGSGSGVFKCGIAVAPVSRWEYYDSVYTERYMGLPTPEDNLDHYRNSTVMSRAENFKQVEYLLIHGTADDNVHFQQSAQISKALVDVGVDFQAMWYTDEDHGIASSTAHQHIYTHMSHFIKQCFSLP

Compound: O=C(CN[C@@H]1CCNC1)N1CCC[C@H]1B(O)O [compound of formula (I), dutogliptin]
- selectivity for inhibition of DPP-IV over the other amino dipeptidyl peptidases: maintained selectivity for inhibition of DPP-IV over the other amino dipeptidyl peptidases

Reference: patent publication US20100240611A1, “METHODS FOR PREPARING DPP-IV INHIBITOR COMPOUNDS” (priority 2009, published 2010)
